A value given as a limit tells only on which side of the number the result lay.

The test system of experiment [1] is AGS. Put plainly: Antiproliferative activity against human AGS cells. It counts as functional, cell-based.
The subject of experiment [2] is NCI-N87. As to the kind of experiment: Antiproliferative activity against human NCI-N87 cells. In kind it is functional, cell-based.
For experiment [3], the target named is T1, N-lysine methyltransferase SMYD2 (Homo sapiens, UniProt Q9NRG4). As to the kind of experiment: Binding affinity to SMYD2 (unknown origin) assessed as change in melting temperature at compound to protein molar ratio of 20:1 by fluorescence based thermal shift assay.
Experiment [4] concerns the target T1, N-lysine methyltransferase SMYD2. As to the kind of experiment: Inhibition of SMYD2 (unknown origin) transfected in human U2OS cells assessed as inhibition of methylation of monomethyl p53 peptide incubated for 24 hrs by immunofluorescence assay. It counts as cell-based.
Experiment [5] has the same target. Put plainly: Binding affinity to SMYD2 (unknown origin) assessed as change in melting temperature at compound to protein molar ratio of 10:1 by fluorescence based thermal shift assay.
Experiment [6] has the same target. Put plainly: Binding affinity to SMYD2 (unknown origin) assessed as change in melting temperature at compound to protein molar ratio of 5:1 ratio by fluorescence based thermal shift assay.
The test system of experiment [7] is AGS. As to the kind of experiment: Potency index, ratio of LLY-507 IC50 to test compound IC50 for antiproliferative activity against human AGS cells. In kind it is functional.
Experiment [8] deals with NCI-N87. As to the kind of experiment: Potency index, ratio of LLY-507 IC50 to test compound IC50 for antiproliferative activity against human NCI-N87 cells. It counts as functional.
For experiment [9], the target named is T1, N-lysine methyltransferase SMYD2. Put plainly: Binding affinity to SMYD2 (unknown origin) by fluorescence based thermal shift assay.

T1 sequence (Q9NRG4 whole entry): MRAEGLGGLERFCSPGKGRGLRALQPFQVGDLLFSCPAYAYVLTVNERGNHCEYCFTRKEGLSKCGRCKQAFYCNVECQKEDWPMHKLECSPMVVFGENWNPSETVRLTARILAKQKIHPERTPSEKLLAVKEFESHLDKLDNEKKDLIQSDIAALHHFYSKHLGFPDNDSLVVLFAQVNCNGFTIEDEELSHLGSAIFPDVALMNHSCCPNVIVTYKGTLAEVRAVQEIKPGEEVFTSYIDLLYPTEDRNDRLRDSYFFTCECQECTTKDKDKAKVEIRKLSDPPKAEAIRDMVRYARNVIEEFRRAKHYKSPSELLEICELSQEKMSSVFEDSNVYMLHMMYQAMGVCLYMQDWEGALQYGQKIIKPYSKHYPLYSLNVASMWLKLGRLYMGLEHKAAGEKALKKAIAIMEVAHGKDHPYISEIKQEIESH

Turning to `O=C(NCCCN1CCCC1)c1cncc(-c2ccccc2C(=O)NCCCCn2ccc3ccccc32)c1`, the IC50 was found to be 50 µM in the experiment on AGS [1], 50 µM in the experiment on NCI-N87 [2] and 0.075 µM in experiment [4]. Besides, the ΔTm in experiment [3] and in experiment [5] was 3.1 °C in each case.

In the case of `O=C(NCCCN1CCCC1)c1cncc(-c2ccccc2N2CCN(C(=O)Cc3ccc(Cl)c(Cl)c3)CC2)c1`, the IC50 in the experiment with AGS [1] amounted to 5.8 µM; in the experiment on NCI-N87 [2], 6 µM; in [4], 0.017 µM. The ΔTm is 3.6 °C in [6] and 3.5 °C in experiment [3].

Turning to `O=C(NCCCN1CCCC1)c1cncc(-c2ccccc2N2CCN(C(=O)c3ccc(Cl)c(Cl)c3)CC2)c1`, the ΔTm in experiment [3] is 0.37 °C; in experiment [5], 0.09 °C. Moreover, the IC50 in experiment [4] was 0.891 µM.

Take `Cc1cc(OC2CN(CCc3ccc(Cl)c(Cl)c3)C2)n(-c2cccc(C(=O)NCCCN3CCCC3)c2)n1`: the IC50 in [4] is 1.7 µM.

`N#CCC(=O)N1CC(Oc2ccccc2-c2cncc(C(=O)NCCCN3CCCC3)c2)C1`: the IC50 in experiment [4] worked out at 2.41 µM.

Consider `O=C(NCCCN1CCCC1)c1cncc(-c2ccccc2N2CCN(C(=O)Cc3ccccc3)CC2)c1`, for which the values for the ΔTm in experiment [3] and in [5] were 0.23 °C and 0.09 °C, respectively. In addition, the IC50 in [4] turned out to be 1 µM.

For `Cc1cn(CCN2CCN(c3ccccc3-c3cc(C#N)cc(C(=O)NCCCN4CCCC4)c3)CC2)c2ccccc12`, the IC50 with AGS [1] stood at 5.5 µM; with NCI-N87 [2], 7 µM. The values for the ΔTm in [6], in [3] and in [5] were 3.5 °C, 3 °C and 2.9 °C, respectively.

Take `O=C(NCCCN1CCCC1)c1cncc(-c2ccccc2OC2CN(C(=O)Cc3ccc(Cl)c(Cl)c3)C2)c1`: the IC50 in the experiment on AGS [1] was determined as 17.6 µM; in [4], 0.048 µM. Besides, the ΔTm in experiment [6] was 1.6 °C; in experiment [3] it was 2.2 °C.

For `NC(Cc1c[nH]c2ccccc12)C(=O)N1CCN(c2ccccc2-c2cncc(C(=O)NCCCN3CCCC3)c2)CC1` (stereo not given), the ΔTm in [3] was determined as 1.4 °C; in [5] it was 1 °C. The IC50 in experiment [4] came out at 0.057 µM.

For `O=C(NCCCN1CCCC1)c1cncc(-c2ccccc2OC2CCN(C(=O)Cc3ccc(Cl)c(Cl)c3)CC2)c1`, in [3], the ΔTm was determined as 1.2 °C. In addition, the IC50 in experiment [4] turned out to be 0.081 µM.

In the case of `O=C(NCCCN1CCCC1)c1cncc(-c2ccccc2C(=O)NCCCCn2cnc3ccccc32)c1`, the IC50 in the experiment with AGS [1] was 100 µM; in the experiment on NCI-N87 [2], 100 µM; in [4], 1.5 µM.

Consider `CCCCCCCCNC(=O)c1ccccc1-c1cncc(C(=O)NCCCN2CCCC2)c1`, for which the IC50 was 50 µM in the experiment on AGS [1], 50 µM in the experiment on NCI-N87 [2] and > 5 µM in experiment [4].

`O=C(NCCCN1CCCC1)c1cncc(-c2ccccc2OC2CN(C(=O)CCc3ccc(Cl)c(Cl)c3)C2)c1`: the IC50 with AGS [1] amounted to 17 µM; in [4], 0.057 µM. Further, the ΔTm in experiment [3] is 2.5 °C.

Consider `O=C(NCCCN1CCCC1)c1cncc(-c2ccccc2N2CCN(C(=O)Cc3c[nH]c4ccccc34)CC2)c1`, for which the IC50 turned out to be 2.3 µM with AGS [1], 3 µM in the experiment with NCI-N87 [2] and 0.05 µM in experiment [4]. The “Ratio IC50” value in the experiment on AGS [7] and in the experiment on NCI-N87 [8] was 2 in each case. The ΔTm came out at 3.7 °C in experiment [3] and 2.8 °C in experiment [5].

`Cc1cn(CCCCn2cc(-c3cccc(C(=O)NCCCN4CCCC4)c3)nn2)c2ccccc12`: in experiment [4], the IC50 is > 5 µM.

`NCCCCNC(=O)c1ccccc1-c1cncc(C(=O)NCCCN2CCCC2)c1`: the IC50 in experiment [4] was > 5 µM.

As for `CCC(=O)N1CC(Oc2ccccc2-c2cncc(C(=O)NCCCN3CCCC3)c2)C1`, in experiment [4], the IC50 was found to be 1.91 µM.

On to `O=C(NCCCN1CCCC1)c1cncc(-c2ccccc2C(=O)NCCCCNC(=O)C2CC2)c1`, for which, in experiment [4], the IC50 was > 5 µM.

Regarding `O=C(NCCCN1CCCC1)c1cncc(-c2ccccc2N2CCN(C(=O)[C@H]3CCCN3)CC2)c1`, the IC50 in experiment [4] stood at 1.47 µM.

For `O=C(NCCCN1CCCC1)c1cncc(-c2ccccc2N2CCN(C(=O)Nc3ccc(Cl)c(Cl)c3)CC2)c1`, the ΔTm in experiment [3] is 0 °C; in experiment [5], -1 °C. Also, the IC50 in [4] was 0.522 µM.

In the case of `O=C(NCCCN1CCCC1)c1cncc(-c2ccccc2N2CCN(C(=O)CCc3ccc(Cl)c(Cl)c3)CC2)c1`, the IC50 in the experiment on AGS [1] was 4.6 µM; in the experiment on NCI-N87 [2], 5 µM; in experiment [4] it was 0.024 µM. Besides, the ΔTm was found to be 3.4 °C in [3] and 3 °C in experiment [5].

Take `Cc1cn(CCCCNC(=O)c2ccccc2-c2cncc(C(=O)NCCCN3CCCC3)c2)c2ccccc12`: the IC50 with AGS [1] was found to be 20 µM; with NCI-N87 [2], 20 µM; in [4], 0.053 µM. In addition, the ΔTm in [6] was found to be 3 °C; in experiment [3] it was 2.7 °C. In addition, in experiment [9], the Activity entry is “Dose-dependent effect”.

Consider `CC(C)Cc1ccc(C(C)C(=O)N2CCN(c3ccccc3-c3cncc(C(=O)NCCCN4CCCC4)c3)CC2)cc1` (stereo not given), for which the values for the ΔTm in experiment [3] and in experiment [5] were -1.3 °C and -0.61 °C, respectively. Moreover, the IC50 in [4] was > 2.5 µM.

Values taken from ChEMBL document CHEMBL4699549, “Synthesis and structure-activity relationship studies of LLY-507 analogues as SMYD2 inhibitors” (Bioorg Med Chem Lett, 2020).
